In US10196421B2, “Nucleophile-reactive sulfonated compounds for the (radio)labelling of (bio)molecules; precursors and conjugates thereof” (Advanced Accelerator Applications SA, priority 2012, dated 2019):

Assay: solubility of Cy 5.5 before and after conjugation with the sulfonated prosthetic compound
Format: physicochemical
Conditions: unconjugated precursor
Description: This fact confirms that the present invention enables to increase the hydrophilic character of the (bio)molecules conjugated therewith.

solubility in water: water insoluble
Substance: Cy 5.5
